Here are results for one compound from US6365597B1, “4-aza steroids” (Aventis Pharmaceuticals Inc., priority 1996, dated 2002).

Structures are written as SMILES.

With `CC12CCC3C(CC[C@H]4NC(=O)CCC34C)C1CC[C@@H]2OC1CC1` (stereo partly drawn) [MDL 103,432, 17β-Cyclopropyloxy-4-aza-5α-androstan-3-one], the melting point – broadly, the temperature, or range, at which the solid turns liquid – was 237.5 to 238.5 °C.
